Measurements from patent publication US12398154B2, “Azaquinazoline pan-KRas inhibitors” (Mirati Therapeutics, Inc., priority 2020, dated 2025).
pIC50: −log10 of the molar value.

How the values were obtained:
pERK in PSN1 cells = assay: Inhibition of KRas phosphorylation of ERK (Cisbio HTRF pERK assay); conditions: Homo sapiens, PSN1, 3 h, read-out: Inhibition (HTRF IC50) of KRas-mediated Phosphorylation of ERK, PSN1
KRas G12R = KRas G12R (Homo sapiens, UniProt P01116, G12R); assay: biochemical;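 note: TR-FRET displacement assay of compound binding to KRas, read after one hour at room temperature, potency from a four-parameter fit of percent-of-control values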
Procedure: (§5) The ability of a compound to bind to KRas was measured using a TR-FRET displacement assay. […] After a 60-minute incubation at room temperature, the reaction was measured using a BMG LABTECH CLARIO star Plus via TR-FRET. […] The POC values were fit to a 4-parameter IC50 equation and the IC50 value reported.

KRas G12D = KRas G12D (Homo sapiens, UniProt P01116, G12D); assay: biochemical;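 note: TR-FRET displacement binding assay on KRas, read after a one-hour incubation at room temperature, IC50 fitted from percent-of-control values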
Procedure: as §5

pERK in MKN1 cells = assay: Inhibition of KRas phosphorylation of ERK (Cisbio HTRF pERK assay); conditions: Homo sapiens, MKN-1, 3 h, read-out: Inhibition (HTRF IC50) of KRas-mediated Phosphorylation of ERK, MKN1
[1] = system: phospho-ERK in NCI-H727 (G12V) cells; assay: Inhibition of KRas-mediated phosphorylation of ERK (in-cell western); assay type: cell-based; conditions: Homo sapiens, NCI-H727, 3 h, 3 hours compound, phospho-ERK normalized to GAPDH
Procedure: (§1) Diluted compounds were then added in a final concentration of 0.5% DMSO. After 3 hours, 50 μL of 4.0% formaldehyde was added and the plates incubated at room temperature for 20 minutes. The plates were then dumped and permeabilized with 150 μL of ice cold 100% methanol for 10 minutes.
(§2) The amount of phospho-ERK was determined using an antibody specific for the phosphorylated form of ERK and compared to the amount of GAPDH. […] The plates were incubated overnight at 4° C. The plates were washed 3× with 150 uL PBS+0.1% Tween 20.
(§3) The plates were washed 3× with 150 uL PBS+0.1% Tween 20. Plates were imaged dry on a Li-COR Odyssey CLX plate reader.
(§4) The phospho-ERK (Thr202/Tyr204) signal was normalized to the GAPDH signal for each well and percent of DMSO control values were calculated. IC50 values were generated using a 4-parameter fit of the dose response curve.

[2] = system: phospho-ERK in NCI-H460 (Q61H) cells; assay: as above; assay type: cell-based; conditions: Homo sapiens, NCI-H460, 3 h, 3 hours compound, phospho-ERK normalized to GAPDH
Procedure: as §1, §2, §3, §4

[3] = system: phospho-ERK in AsPC-1 (G12D) cells; assay: as above; assay type: cell-based; conditions: Homo sapiens, ASPC1, 3 h, 3 hours compound, phospho-ERK normalized to GAPDH
Procedure: as §1, §2, §3, §4

KRas G12V = KRas G12V (Homo sapiens, UniProt P01116, G12V); assay: biochemical;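 note: KRas binding measured by TR-FRET displacement at room temperature, IC50 fitted from percent of control values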
Chain of KRas G12V (P01116 1-169 isoform P01116-2 G12V): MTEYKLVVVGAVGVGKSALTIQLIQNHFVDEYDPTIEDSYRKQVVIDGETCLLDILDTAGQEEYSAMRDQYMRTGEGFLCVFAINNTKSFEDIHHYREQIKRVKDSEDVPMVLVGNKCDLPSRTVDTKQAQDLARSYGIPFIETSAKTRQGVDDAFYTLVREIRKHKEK
Procedure: as §5

Chain of KRas G12R (P01116 1-169 isoform P01116-2 G12R): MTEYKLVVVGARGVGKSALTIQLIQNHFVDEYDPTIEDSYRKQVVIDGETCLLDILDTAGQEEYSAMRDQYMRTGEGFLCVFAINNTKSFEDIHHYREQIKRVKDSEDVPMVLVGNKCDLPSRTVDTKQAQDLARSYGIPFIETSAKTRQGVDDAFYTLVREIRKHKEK
Chain of KRas G12D (P01116 1-169 isoform P01116-2 G12D): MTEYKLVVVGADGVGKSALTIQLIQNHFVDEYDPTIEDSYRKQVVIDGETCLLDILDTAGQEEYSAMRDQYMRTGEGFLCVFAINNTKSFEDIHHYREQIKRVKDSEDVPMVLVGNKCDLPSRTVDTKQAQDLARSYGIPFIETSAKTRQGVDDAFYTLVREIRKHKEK

Structure (SMILES) | pIC50 (pERK in PSN1 cells) | pIC50 (KRas G12R) | pIC50 (KRas G12D) | pIC50 (pERK in MKN1 cells) | IC50 [1] | IC50 [2] | IC50 [3] | pIC50 (KRas G12V)
CCc1c(F)ccc2cc(O)cc(-c3ncc4c(N5CCC[C@@](C)(O)C5)nc(OC[C@@]56CCCN5[C@H](CO)CC6)nc4c3F)c12 [Example 304, (R)-1-(7-(8-ethyl-7-fluoro-3-hydroxynaphthalen-1-yl)-8-fluoro-2-(((3S,7aS)-3-(hydroxymethyl)hexahydro-1H-pyrrolizin-7a-yl)methoxy)pyrido[4,3-d]pyrimidin-4-yl)-3-methylpiperidin-3-ol] | ≤ 5.00 | ≥ 8.70 | ≥ 8.70 | 7.54 | 2580 nM | 804 nM | 1370 nM | ≥ 8.70
CCc1c(F)ccc2cc(O)cc(-c3ncc4c(NC56CC(CO)(C5)C6)nc(OC[C@@]56CCCN5C[C@H](F)C6)nc4c3F)c12 [Example 167, 5-ethyl-6-fluoro-4-(8-fluoro-2-(((2R,7aS)-2-fluorohexahydro-1H-pyrrolizin-7a-yl)methoxy)-4-((3-(hydroxymethyl)bicyclo[1.1.1]pentan-1-yl)amino)pyrido[4,3-d]pyrimidin-7-yl) naphthalen-2-ol] | ≤ 5.00 | ≥ 8.70 | 7.80 | 8.52 | 1250 nM | 623 nM | 6760 nM | ≥ 8.70
CCc1c(F)ccc2cc(O)cc(-c3ncc4c(N5C[C@H](O)CC[C@H]5C)nc(OC[C@@]56CCCN5C[C@H](F)C6)nc4c3F)c12 [Example 182] | 5.16 |  |  | 8.30 | 355 nM | 157 nM | 547 nM | 
CCc1c(F)ccc2cc(O)cc(-c3ncc4c(NCCCc5cccnc5)nc(OC[C@@]56CCCN5C[C@H](F)C6)nc4c3F)c12 [Example 198, 5-ethyl-6-fluoro-4-(8-fluoro-2-(((2R,7aS)-2-fluorohexahydro-1H-pyrrolizin-7a-yl)methoxy)-4-((3-(pyridin-3-yl)propyl)amino)pyrido[4,3-d]pyrimidin-7-yl)naphthalen-2-ol] | ≤ 5.00 | 8.10 | 7.07 | 6.74 | 1750 nM | 803 nM | 2690 nM | 8.05
NS(=O)(=O)CC1CCCN(c2nc(OC[C@@]34CCCN3C[C@H](F)C4)nc3c(F)c(-c4cc(O)cc5ccc(F)c(F)c45)ncc23)C1 (stereo partly shown) [Example 203] | 5.43 | ≥ 8.70 | ≥ 8.70 | 7.46 | 1270 nM | 758 nM | 8010 nM | ≥ 8.70
CCc1c(F)ccc2cc(O)cc(-c3ncc4c(N5CCC(F)(F)C(O)C5)nc(OC[C@@]56CCCN5C[C@H](F)C6)nc4c3F)c12 (stereo partly shown) [Example 191] | 5.23 | 8.40 | 8.05 | 7.82 | 714 nM | 230 nM | 665 nM | 8.40
Oc1cc(-c2ncc3c(N4CCC[C@]5(C4)C[C@@H](O)C5)nc(OC[C@@]45CCCN4C[C@H](F)C5)nc3c2F)c2c(F)c(F)ccc2c1 (single isomer, unassigned) [Example 442] | 5.55 | ≥ 8.70 | ≥ 8.70 | 8.05 | 234 nM | 124 nM | 134 nM | ≥ 8.70
CCc1c(F)ccc2cc(O)cc(-c3ncc4c(N5CCCC(O)(C(F)(F)F)C5)nc(OC[C@@]56CCCN5C[C@H](F)C6)nc4c3F)c12 (stereo partly shown) [Example 183] | 5.37 |  |  | 8.70 | 720 nM | 137 nM | 399 nM | 
CCc1c(F)ccc2cc(O)cc(-c3ncc4c(NCc5ccc(=O)n(C)c5)nc(OC[C@@]56CCCN5C[C@H](F)C6)nc4c3F)c12 [Example 199] | ≤ 5.00 | ≥ 8.70 | 8.52 | 8.15 | 798 nM | 314 nM | 1320 nM | ≥ 8.70
CCc1c(F)ccc2cc(O)cc(-c3ncc4c(N5CCCC(CO)C5)nc(OC[C@@]56CCCN5C[C@H](F)C6)nc4c3F)c12 (stereo partly drawn) [Example 306, 5-ethyl-6-fluoro-4-(8-fluoro-2-(((2R,7aS)-2-fluorohexahydro-1H-pyrrolizin-7a-yl)methoxy)-4-(3-(hydroxymethyl)piperidin-1-yl)pyrido[4,3-d]pyrimidin-7-yl)naphthalen-2-ol] | 5.17 |  |  | 7.24 | 461 nM | 306 nM | 405 nM | 
CCc1c(F)ccc2cc(O)cc(-c3ncc4c(N5C[C@@H](C)C[C@@H](O)C5)nc(OC[C@@]56CCCN5C[C@H](F)C6)nc4c3F)c12 [Example 180] | 5.16 | 8.40 | 8.40 | 8.00 | 623 nM | 113 nM | 205 nM | ≥ 8.70
CCc1c(F)ccc2cc(O)cc(-c3ncc4c(NCCc5c[nH]nn5)nc(OC[C@@]56CCCN5C[C@H](F)C6)nc4c3F)c12 [Example 169, 4-(4-((2-(1H-1,2,3-triazol-4-yl)ethyl)amino)-8-fluoro-2-(((2R,7aS)-2-fluorohexahydro-1H-pyrrolizin-7a-yl)methoxy)pyrido[4,3-d]pyrimidin-7-yl)-5-ethyl-6-fluoronaphthalen-2-ol] | ≤ 5.00 | ≥ 8.70 | 8.40 | 7.00 | 1810 nM | 931 nM | 2890 nM | ≥ 8.70
C#Cc1c(F)ccc2cc(O)cc(-c3ncc4c(N5CCOC[C@](C)(O)C5)nc(OC[C@@]56CCCN5C[C@H](F)C6)nc4c3F)c12 (single isomer, unassigned) [Example 386] | 5.54 | 8.22 | 8.15 | 7.36 | 1020 nM | 299 nM | 1180 nM | 8.30
CCc1c(F)ccc2cc(O)cc(-c3ncc4c(N5CCC[C@@]6(CNC(=O)C6)C5)nc(OC[C@]56CCCN5C[C@@H](O)C6)nc4c3F)c12 [Example 305, (R)-7-(7-(8-ethyl-7-fluoro-3-hydroxynaphthalen-1-yl)-8-fluoro-2-(((2S,7aR)-2-hydroxytetrahydro-1H-pyrrolizin-7a(5H)-yl)methoxy)pyrido[4,3-d]pyrimidin-4-yl)-2,7-diazaspiro[4.5]decan-3-one] |  | 7.85 | 7.60 |  | ≥ 10000 nM | ≥ 10000 nM | ≥ 10000 nM | 8.22
CCc1c(F)ccc2cc(O)cc(-c3ncc4c(N5CC(O)CC(F)(F)C5)nc(OC[C@@]56CCCN5C[C@H](F)C6)nc4c3F)c12 (stereo partly shown) [Example 190] | 5.30 | ≥ 8.70 |  | 7.96 | 272 nM | 62 nM | 189 nM | ≥ 8.70
CCc1c(F)ccc2cc(O)cc(-c3ncc4c(NC5CN(C(N)=O)C5)nc(OC[C@@]56CCCN5C[C@H](F)C6)nc4c3F)c12 [Example 310, 3-((7-(8-ethyl-7-fluoro-3-hydroxynaphthalen-1-yl)-8-fluoro-2-(((2R,7aS)-2-fluorohexahydro-1H-pyrrolizin-7a-yl)methoxy)pyrido[4,3-d]pyrimidin-4-yl)amino)azetidine-1-carboxamide] |  | ≥ 8.70 | 8.10 |  | 3370 nM | 3790 nM | ≥ 10000 nM | ≥ 8.70
CCc1c(F)ccc2cc(O)cc(-c3ncc4c(N5C[C@H](O)CC[C@@H]5C)nc(OC[C@@]56CCCN5C[C@H](F)C6)nc4c3F)c12 [Example 186] | ≤ 5.00 |  |  | 6.97 | 1060 nM | 592 nM | 1590 nM | 
CCc1c(F)ccc2cc(O)cc(-c3ncc4c(N5CCC[C@@](C)(O)C5)nc(OC[C@@H]5C[C@@H](OC(=O)NC)CN5C)nc4c3F)c12 [Example 12, (3R,5S)-5-(((7-(8-ethyl-7-fluoro-3-hydroxy)naphthalen-1-yl)-8-fluoro-4-((R)-3-hydroxy-3-methylpiperidin-1-yl)pyrido[4,3-d]pyrimidin-2-yl)oxy)methyl)-1-methylpyrrolidin-3-yl methylcarbamate] | ≤ 5.00 | 8.40 | 8.52 | 7.59 |  |  | 497 nM | 8.52
CCc1c(F)ccc2cc(O)cc(-c3ncc4c(N5CC[C@H](F)[C@@H](O)C5)nc(OC[C@@]56CCCN5C[C@H](F)C6)nc4c3F)c12 [Example 179] | 5.16 |  |  | 8.00 | 675 nM | 274 nM | 785 nM | 
